From patent US10941137B2, “Difluoromethyl-phenyl triazoles” (Boehringer Ingelheim International GmbH, priority 2018, dated 2021) come the findings set out here.

One data set addresses T1, α5β2γ2 GABAA receptor (Homo sapiens, UniProt P18507+P31644).
T1 sequence (P31644 32-462): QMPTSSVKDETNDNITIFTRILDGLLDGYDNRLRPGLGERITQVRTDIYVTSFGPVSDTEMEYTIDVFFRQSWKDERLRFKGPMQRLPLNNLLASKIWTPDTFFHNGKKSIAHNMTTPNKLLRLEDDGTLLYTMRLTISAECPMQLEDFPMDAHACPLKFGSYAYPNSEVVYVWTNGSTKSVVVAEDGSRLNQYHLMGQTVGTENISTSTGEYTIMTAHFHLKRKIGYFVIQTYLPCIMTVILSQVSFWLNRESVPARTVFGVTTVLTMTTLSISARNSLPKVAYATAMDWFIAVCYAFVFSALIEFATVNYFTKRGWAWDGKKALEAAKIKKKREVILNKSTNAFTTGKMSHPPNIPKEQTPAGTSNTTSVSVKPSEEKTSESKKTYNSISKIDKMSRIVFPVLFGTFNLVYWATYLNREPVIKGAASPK
T1 sequence (P18507 40-376 limits assumed): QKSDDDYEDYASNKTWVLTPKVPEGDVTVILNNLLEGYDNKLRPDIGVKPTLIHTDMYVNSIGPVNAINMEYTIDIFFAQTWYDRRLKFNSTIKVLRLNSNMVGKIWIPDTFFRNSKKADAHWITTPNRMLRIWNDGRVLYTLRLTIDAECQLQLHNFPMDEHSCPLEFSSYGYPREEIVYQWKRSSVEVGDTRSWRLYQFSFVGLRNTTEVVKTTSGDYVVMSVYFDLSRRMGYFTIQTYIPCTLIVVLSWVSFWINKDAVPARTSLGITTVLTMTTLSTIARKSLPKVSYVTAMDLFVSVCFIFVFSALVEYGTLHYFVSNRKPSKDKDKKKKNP
Description: Assay B: modulation of α5β2γ2 GABAA receptor, two-electrode voltage clamp in oocytes. The class given is cell-based. As to conditions: for EC50: oocytes, TEVC, co-application with GABA 0.5 μM (EC5-20), read-out: Assay B: GABAA α5β3γ2 EC50. The method, then: Assay B: In vitro evaluation of modulation of α5β2γ2 GABAA receptor.
Modulatory efficacy of compounds of formula (I) is determined electrophysiological recordings in oocytes using the two-electrode voltage clamp (TEVC) technique. Oocytes are injected with cRNA for human GABAA receptor subunits α5, β2 and γ2 in a 3:1:3 ratio and modulatory efficacy is evaluated by co-applications with a submaximal EC5-20 GABA concentration (0.5 μM) termed GABA control. As a standard, the compounds are tested in five concentrations (3.16, 0.316, 0.0316, 0.00316 and 0.000316 μM) on each oocyte starting with the lowest concentration. Background subtracted peak current amplitudes are normalized to the respective GABA control current, converted to % change and depicted +/−S.E.M. as a function of increasing compound concentrations. Plotted datapoints are fitted to the empirical Hill equation using non-linear regression. 95% confidence intervals for maximal efficacy (Bottom) and potency (Log EC50) are derived from this fitting routine.
In general terms: Two-electrode voltage clamp is typically applied to oocytes expressing channels or transporters.

In the next data set the test system is human MDR1 P-gp. The data set is described as follows: Efflux in MDCK cells transfected with the human MDR1 gene (MDCK-PGP permeability). The class given is in vitro ADME, canine. To be noted: dog, pH 7.4, 37° C.; for efflux ratio: PEBA/PEAB; for Papp A→B: apical-to-basal apparent permeability (PEAB). The method, then:
Assessment of Efflux in Madin-Darby Canine Kidney (MDCK) Cells Transfected with the 30 Human MDR1 Gene to Assess Brain Penetration (Drug Metabolism and Disposition February 2008, 36 (2) 268-275; DOI: https://doi.org/10.1124/dmd.107.017434) Apparent permeability coefficients (PE) of the compounds across the MDCK-MDR1 cell monolayers are measured (pH 7.4, 37° C.) in apical-to-basal (AB) and basal-to-apical (BA) transport direction. AB permeability (PEAB) represents drug absorption from the blood into the 35 brain and BA permeability (PEBA) drug efflux from the brain back into the blood via both passive permeability as well as active transport mechanisms mediated by efflux and uptake transporters that are expressed on the MDCK-MDR1 cells, predominantly by the overexpressed human MDR1 P-gp. The compounds are assigned to permeability/absorption classes by comparison of the AB permeabilities with the AB permeabilities of reference compounds with known in vitro permeability and oral absorption in the human. Identical or similar permeabilities in both transport directions indicate passive permeation, vectorial permeability points to additional active transport mechanisms. Higher PEBA than PEAB indicates the involvement of active efflux mediated by MDR1 P-gp. Active transport is concentration-dependently saturable.
MDCK-MDR1 cells (1-2×10e5 cells/1 cm2 area) are seeded on filter inserts (Costar transwell polycarbonate or PET filters, 0.4 μm pore size) and cultured (DMEM) for 7 days. Subsequently, the MDR1 expression is boosted by culturing the cells with 5 mM sodium butyrate in full medium for 2 days. Compounds are dissolved in appropriate solvent (like DMSO, 1-20 mM stock solutions). Stock solutions are diluted with HTP-4 buffer (128.13 mM NaCl, 5.36 mM KCl, 1 mM MgSO4, 1.8 mM CaCl2, 4.17 mM NaHCO3, 1.19 mM Na2HPO4×7H2O, 0.41 mM NaH2PO4xH2O, 15 mM HEPES, 20 mM glucose, 0.25% BSA, pH 7.4) to prepare the transport solutions (0.1-300 μM compound, final DMSO <=0.5%). The transport solution (TL) is applied to the apical or basolateral donor side for measuring A-B or B-A permeability (3 filter replicates), respectively. The receiver side contains the same buffer as the donor side. Samples are collected at the start and end of experiment from the donor and at various time intervals for up to 2 hours also from the receiver side for concentration measurement by HPLC-MS/MS or scintillation counting. Sampled receiver volumes are replaced with fresh receiver solution.

Broadly, the EC50 is the midpoint of the concentration-response curve. For the molecule `Cc1nnn(-c2ccc(C(F)F)cc2)c1COc1ccc(-c2ccnc(O)c2)nn1` [Example 2, 4-[6-({1-[4-(difluoromethyl)phenyl]-4-methyl-1H-1,2,3-triazol-5-yl}methoxy)pyridazin-3-yl]pyridin-2-ol], at α5β2γ2 GABAA receptor, the Assay B: GABAA α5β3γ2 Emax vs GABA was -57% and the EC50 is 6 nM.
Usually efflux ratio stands for a quotient of directional permeabilities that is used to spot active efflux. For orientation: Papp A→B means how fast a substance crosses the layer from the apical side. In the case of `COc1ncc(-c2ccc(OCc3c(C)nnn3-c3ccc(C(F)F)cc3)nn2)cn1` [Example 3], in the data set with human MDR1 P-gp, the efflux ratio was 0.6 and the Papp A→B came out at 59.7 ×10⁻⁶ cm/s. Also, at α5β2γ2 GABAA receptor, the Assay B: GABAA α5β3γ2 Emax vs GABA is -44.3% and the concentration giving a half-maximal response (EC50) was 13.5 nM.
Take `Cc1nnn(-c2ccc(C(F)F)cc2)c1COc1ccc(-c2cnc(OCC(C)(C)O)nc2)nn1` [Example 4]: at α5β2γ2 GABAA receptor, the Assay B: GABAA α5β3γ2 Emax vs GABA was -41.5% and the EC50 is 22.8 nM.
Turning to `Cc1nnn(-c2ccc(C(F)F)cc2)c1COc1ccc(-c2cnn(C)c2)nn1` [Example 5], at α5β2γ2 GABAA receptor, the Assay B: GABAA α5β3γ2 Emax vs GABA was -37.7% and the EC50 was determined as 5.8 nM.
For the molecule `Cc1ncc(-c2ccc(OCc3c(C)nnn3-c3ccc(C(F)F)cc3)nn2)o1` [Example 6], in the data set with human MDR1 P-gp, the efflux ratio came out at 0.7 and the Papp A→B was 67.8 ×10⁻⁶ cm/s. For the same molecule, on α5β2γ2 GABAA receptor, the Assay B: GABAA α5β3γ2 Emax vs GABA is -33.3% and the EC50 worked out at 6.9 nM.
Taken in the same sequence, the figures for `CCn1cc(-c2ccc(OCc3c(C)nnn3-c3ccc(C(F)F)cc3)nn2)cn1` [Example 7] were 2.7, 17.7 ×10⁻⁶ cm/s, -32% and 6 nM.
`Cc1nnn(-c2ccc(C(F)F)cc2)c1COc1ccc(-c2cncc(-n3ccnc3)c2)nn1` [Example 8]: at α5β2γ2 GABAA receptor, the Assay B: GABAA α5β3γ2 Emax vs GABA is -19.5% and the concentration giving a half-maximal response (EC50) was 17 nM.
As to `Cc1nnn(-c2ccc(C(F)F)cc2)c1COc1ccc(-c2cnn(C3CC3)c2)nn1` [Example 9], in the data set with human MDR1 P-gp, the efflux ratio stood at 0.8 and the Papp A→B was found to be 42.4 ×10⁻⁶ cm/s. For the same molecule, on α5β2γ2 GABAA receptor, the Assay B: GABAA α5β3γ2 Emax vs GABA is -12% and the EC50 turned out to be 47.5 nM.
The matching figures for `Cc1cc(-c2ccc(OCc3c(C)nnn3-c3ccc(C(F)F)cc3)nn2)cnn1` [Example 11]: 3.7, 18.8 ×10⁻⁶ cm/s, -17.6% and 10.3 nM.
`Cc1n[nH]c(C)c1-c1ccc(OCc2c(C)nnn2-c2ccc(C(F)F)cc2)nn1` [Example 12, 3-({1-[4-(difluoromethyl)phenyl]-4-methyl-1H-1,2,3-triazol-5-yl}methoxy)-6-(3,5-dimethyl-1H-pyrazol-4-yl)pyridazine]: on α5β2γ2 GABAA receptor, the Assay B: GABAA α5β3γ2 Emax vs GABA is -26% and the 50% effective concentration (EC50) is 13 nM.
Consider `CNC(=O)c1cn(-c2ccc(OCc3c(C)nnn3-c3ccc(C(F)F)cc3)nn2)cn1` [Example 14], for which, in the data set with human MDR1 P-gp, the efflux ratio is 3.8 and the Papp A→B was 14.6 ×10⁻⁶ cm/s. On α5β2γ2 GABAA receptor, the Assay B: GABAA α5β3γ2 Emax vs GABA was -47.3% and the EC50 is 2.3 nM.
The matching figures for `Cc1nnn(-c2ccc(C(F)F)cc2)c1COc1ccc(-n2cnc(C(F)F)c2)nn1` [Example 15]: 1.1, 31.8 ×10⁻⁶ cm/s, -42.5% and 1.4 nM.
With `Cc1nnn(-c2ccc(C(F)F)cc2)c1COc1ccc(-n2cnc(C=O)c2)nn1` [Example 17], on α5β2γ2 GABAA receptor, the Assay B: GABAA α5β3γ2 Emax vs GABA is -23% and the EC50 stood at 1.7 nM.
On to `Cc1nnn(-c2ccc(C(F)F)cc2)c1COc1ccc(-n2cnc(Cl)c2)nn1` [Example 18], for which, in the data set with human MDR1 P-gp, the efflux ratio came out at 1.1 and the Papp A→B was determined as 28.5 ×10⁻⁶ cm/s. Moreover, on α5β2γ2 GABAA receptor, the Assay B: GABAA α5β3γ2 Emax vs GABA was -27.5% and the EC50 was determined as 3.7 nM.
Consider `Cc1nnn(-c2ccc(C(F)F)cc2)c1COc1ccc(-n2cnc(S(C)(=O)=O)c2)nn1` [Example 19], for which, at α5β2γ2 GABAA receptor, the Assay B: GABAA α5β3γ2 Emax vs GABA is -25% and the EC50 was 7.7 nM.
Take `Cc1nnn(-c2ccc(C(F)F)cc2)c1COc1ccc(-n2ccc(C#N)n2)nn1` [Example 20]: in the data set on human MDR1 P-gp, the efflux ratio came to 0.6 and the Papp A→B was found to be 52 ×10⁻⁶ cm/s. Besides, at α5β2γ2 GABAA receptor, the Assay B: GABAA α5β3γ2 Emax vs GABA was -19.7% and the EC50 worked out at 4.4 nM.
For the molecule `Cc1nnn(-c2ccc(C(F)F)cc2)c1COc1ccc(-n2ccc(C(N)=O)n2)nn1` [Example 21], in the data set on human MDR1 P-gp, the efflux ratio was 1.2 and the Papp A→B came to 25 ×10⁻⁶ cm/s. Moreover, the Assay B: GABAA α5β3γ2 Emax vs GABA on α5β2γ2 GABAA receptor was 2%.
`Cc1nnn(-c2ccc(C(F)F)cc2)c1COc1ccc(-n2cc3c(n2)CCNC3=O)nn1` [Example 26]: at α5β2γ2 GABAA receptor, the Assay B: GABAA α5β3γ2 Emax vs GABA is -27% and the EC50 is 3.4 nM.
Regarding `Cc1nnn(-c2ccc(C(F)F)cc2)c1COc1ccc(-n2cnc(C(N)=O)c2)nn1` [Example 27, 1-[6-({1-[4-(difluoromethyl)phenyl]-4-methyl-1H-1,2,3-triazol-5-yl}methoxy)pyridazin-3-yl]-1H-imidazole-4-carboxamide], at α5β2γ2 GABAA receptor, the Assay B: GABAA α5β3γ2 Emax vs GABA is -35.2% and the EC50 was 0.4 nM.
Taken in the same sequence, the figures for `Cc1nnn(-c2ccc(C(F)F)cc2)c1COc1ccc(-n2cc(C#N)cn2)nn1` [Example 31] were -23% and 7.4 nM.
Taken in the same sequence, the figures for `Cc1nnn(-c2ccc(C(F)F)cc2)c1COc1ccc(-n2cnc(CN)c2)nn1` [Example 35, {1-[6-({1-[4-(difluoromethyl)phenyl]-4-methyl-1H-1,2,3-triazol-5-yl}methoxy)pyridazin-3-yl]-1H-imidazol-4-yl}methanamine] were -21.7% and 2.1 nM.
As to `Cc1nnn(-c2ccc(C(F)F)cc2)c1COc1ccc(-n2cnc(CO)c2)nn1` [Example 38, {1-[6-({1-[4-(difluoromethyl)phenyl]-4-methyl-1H-1,2,3-triazol-5-yl}methoxy)pyridazin-3-yl]-1H-imidazol-4-yl}methanol], at α5β2γ2 GABAA receptor, the Assay B: GABAA α5β3γ2 Emax vs GABA was -23% and the EC50 was 1.7 nM.
Taken in the same sequence, the figures for `Cc1nnn(-c2ccc(C(F)F)cc2)c1COc1ccc(-n2cnc(C(C)(C)O)c2)nn1` [Example 39, 2-{1-[6-({1-[4-(difluoromethyl)phenyl]-4-methyl-1H-1,2,3-triazol-5-yl}methoxy)pyridazin-3-yl]-1H-imidazol-4-yl}propan-2-ol] were -17.3% and 1.8 nM.
The matching figures for `Cc1nnn(-c2ccc(C(F)F)cc2)c1COc1ccc(-n2cnc(C(C)O)c2)nn1` (stereo not shown) [Example 40]: -17% and 1.9 nM.
